The record followed here is patent US6420393B1, “Cyclopentabenzofuran derivatives and their use” (Bayer Aktiengesellschaft, priority 1998, dated 2002).

pIC50: −log10 of the molar value. Like-named read-outs stand apart in the source and are kept apart here.

Assay [1] concerns NF-κB-mediated TNFα synthesis in human monocytes. As to the kind of experiment: cells. The format is cell-based. To be noted: Monocyte, 100 nM PMA, read-out: IC50 value after PMA stimulus (TNFα synthesis).
Assay [2] has the same test system. Briefly: cells. The format is cell-based. The following applies: Monocyte, LPS 125 ng/ml, 18 hours, TNFα ELISA, read-out: IC50 (inhibition of NF-κB-mediated TNFα synthesis).
For assay [3], the system named is human tissue factor promoter (luciferase) in RAW-A3 cells (RAW 264.7 transfectant). As to the kind of experiment: Inhibition of NF-κB-mediated expression of the human tissue factor gene: promoter-luciferase reporter in RAW-A3 monocyte cells. To be noted: read-out: IC50 (tissue factor promoter-driven luciferase activity). The format is cell-based. As to the method:
Inhibition of the NF-κB-mediated Gene Expression of the Human Tissue Factor Gene in Monocytes
Therefore, for the further detection of the inhibition of the NFκB-mediated gene expression by the inhibitors according to the invention, the following biological test was carried out:
The promoter fragment of the human tissue factor gene which contains the NF-κB binding sequence was cloned with oligonucleotide primers of the sequence 5′-TCCCTCGAGATCTCCCAGAGGCAAACTGCCAGAT-3′ (5′ primer of position −925) and 5′-TCCTCGAGCCATGGCTACCAGTTGGGCGGCGAGATC-3′ (3′ primer containing the ATG start codon of the coding sequence of the tissue factor gene) by means of the polymerase chain reaction (PCR) and fused by means of an NcoI/XhoI cloning with the luciferase start codon in the plasmid pGL3-basic vector (Promega Corp. 2800 Woods Hollow Road, Madison, Wis. 53711-5399 USA). […]
After a further 6 hours, the culture supernatant is aspirated and the cells are processed for the measurement of the luciferase activity according to the procedure of the “Luciferase Assay System” (Technical Bulletin of Promega, 2800 Woods Hollow Road, Madison, Wis. 53711-5399 USA. Products E4030, E1483, E1501). The cell lyzate is incubated with the luciferase assay substrate and measured in a luminometer to measure the emitted light. […]
A general note: A reporter such as luciferase makes a cellular process visible.

Assay [4] deals with adhesion of human neutrophils to TNF-α-stimulated HUVEC cells. Briefly: ELAM-dependent adhesion of human neutrophils to TNF-α-stimulated HUVEC. The format is cell-based. The procedure: (§1) The influence of compound I-3-R on the expression of ELAM-1 was checked in two different test batches. In one functional batch, the adhesion of human neutrophils to TNF-α-stimulated HUVEC cells was measured. The expression of ELAM-1 on the surface of the HUVECs was determined using a fluorescence-labeled ELAM-1-specific monoclonal antibody by means of FACS (cell sorting) analysis.
Experimental Procedure: ELAM-dependent Neutrophil Adhesion to Endothial Cells
The neutrophils were isolated from human blood (100 ml). To this end, 3.5 ml of Polyprep was introduced into a centrifuge bucket and carefully coated with 5 ml of blood. After centrifuging at 2100 min^−1 for 30 minutes, the neutrophil band in the center of the centrifuge bucket was aspirated. After 1:2 dilutions in Clonetics endothelial cell basal medium (EBM), the neutrophils were again centrifuged at 1000 min^−1 for 20 minutes and then made up to a cell concentration of 10^6 cells/ml.
The umbilical cord endothelial cells were grown to confluence in EBM+10% FCS in 96 well microtiter plates. At the start of the experiment, the medium was replaced by EBM without FCS and the experimental substances then employed. After 20 minutes, the HUVECs were stimulated using 10 nM TNF-α. […] The fluorescence of the adherent neutrophils was then measured in a fluorescence photometer.

The subject of assay [5] is ELAM-1 expression in HUVECs. Briefly: TNF-induced expression of ELAM-1 on HUVEC surface (FACS, anti-ELAM-1 antibody). Format: cell-based, human. The procedure: Inhibition of the NF-κB-mediated Gene Expression of the Adhesion Protein ELAM-1 to Human Umbilical Cord Endothelial Cells (HUVEC)
as §1
Experimental Procedure Quantitative Measurement of the TNF-induced Expression of ELAM-1 in HUVECs
Umbilical cord endothelial cells (HUVEC) were cultured as described above and incubated for 4 hours in the presence or absence of test substances in the presence or absence of 10 ng/ml of TNF. […] After centrifuging and washing again, the cells were taken up in 1 ml of PBS plus 1% BSA and measured at 488 nm in a flow cytometer (Becton and Dickinson). The intensity of the fluorescence as a function of bound anti-ELAM-1 antibody per cell is measured by this process. 5000 cells were measured for each value.

The test system of assay [6] is interleukin-2 promoter (luciferase) in SS-1 cell line. As to the kind of experiment: Inhibition of interleukin-2 synthesis: interleukin-2 promoter-luciferase reporter cell line (SS-1), PMA/ionomycin induced. The format is cell-based. The following applies: IL-2 promoter reporter cell line, PMA 5 ng/ml + ionomycin, 24 hours; read-out: IC50 (inhibition of induction of luciferase activity to 50%). The text has this: Inhibition of Interleukin-2 Synthesis
For the testing of the inhibitory action of cyclopentabenzene derivatives on interleukin-2 synthesis, a receptor gene cell line was used which contains the interleukin-2 promoter coupled to the luciferase gene. The promoter contains the DNA sequence from −480 to +4. The vector employed is pGL3; the starting cell line in which the total construct has been stably transfected is SS-1. The culture medium for this cell line was RPMI 1640 (Gibco, Rockille). It additionally contained: 100 μg/ml of streptomycin, 100 U/ml of penicillin, 2 mM L-glutamine, 10% heat-inactivated FBS and 800 μg/ml of G418 sulfate.
The reporter gene test cell line was inoculated into 96-well plates to 1×10^6 cells per well in Phenol Red-free RPMI with the additives and incubated at 37° C. in an atmosphere of 5% CO2, 95% air with phorbol 12-myristate 13-acetate (PMA; 5 ng/ml) and ionomycin ([…]; 0.4 μg/ml) for 24 hours. The test substances were added simultaneously with PMA.
For the generation of the luminescence, LucLite™ solution (Packard, Meriden, Conn.) was added to a concentration of 100 μl/well and the luminescence was measured in a luminometer (Luminoskan, Labsystems) immediately after addition.

On to `COc1ccc([C@@]23Oc4cc(OC)cc(OC)c4[C@]2(O)[C@@H](O)C[C@H]3c2ccccc2)cc1` (racemic) [Example I-1, (1α,3α,3aα,8bα)-3,3a-dihydro-6,8-dimethoxy-3a-(4-methoxyphenyl)-3-phenyl-1H-cyclopenta[b]benzofuran-1,8b(2H)-diol], for which the pIC50 (usually the IC50 on a negative log10 scale, so that one unit is a factor of ten) in assay [1] was 7.00; in assay [2] it was 6.30; in assay [3] (RAW264.7, RAW-A3 cells, induction with 15% serum, 6 hours), 4.70.

With `COc1ccc([C@@]23Oc4cc(OC)cc(OC)c4[C@]2(O)[C@H](O)C[C@H]3c2ccccc2)cc1` (racemic) [Example I-3-R], the “Inhibition of adhesion of neutrophils to TNF-α-stimulated HUVECs” value in assay [4] (10 nM TNF-α, 4 hours, inhibited to 50%) is reported as 50%. The “Concentration at which maximum inhibition of cell adhesion was determined” value in assay [4] (neutrophil adhesion to TNF-α-stimulated HUVECs) stood at 50 nM. In addition, the “Completeness of inhibition of ELAM-1 expression” value in assay [5] (HUVEC, 10 ng/ml TNF, 4 hours, FACS, all concentrations investigated) is “completely inhibited at none of the concentrations investigated”. Moreover, the “Inhibition of expression of ELAM-1 on the cell surface (maximum inhibition)” value in assay [5] (TNF-α-stimulated HUVECs, inhibited to 50%) is given as 50%. Further, the pIC50 in assay [2] is 7.00; in assay [6], 8.00 to 8.30.

Take `COC(=O)CN[C@@H]1C[C@@H](c2ccccc2)[C@]2(c3ccc(OC)cc3)Oc3cc(OC)cc(OC)c3[C@]12O` [Example I-5, methyl (1α,3β,3aβ,8bβ)-N-(3,3a-dihydro-6,8-dimethoxy-3a-(4-methoxyphenyl)-3-phenyl-cyclopenta[b]benzofuran-8b(2H)-ol-1-yl)-2-aminoacetate]: the pIC50 in assay [1] was 7.05; in assay [2] it was 6.30; in assay [3] (RAW264.7, 6 h), 5.70.
